{"source": "patent US9265766B2", "about": "“Methods for altering mRNA splicing and treating familial dysautonomia by administering benzyladenine” (The General Hospital Corporation, priority 2003, dated 2016)", "key": {"[1]": {"test_system": "IKBKAP splicing (WT:MU IKBKAP mRNA)", "assay": "WT:MU IKBKAP mRNA ratio by RT-PCR (IDV) in FD lymphoblast cell lines; drug screen", "type": "cell-based, human", "conditions": "for correct IKBKAP splicing / production of wild-type IKBKAP transcript in FD cells: 10 μM compound in DMSO, 72 hours, FD lymphoblast cell line", "method": "Drug Screen. The panel of 1040 independent compounds used was specifically designed for the NINDS sponsored Neurodegeneration Drug Screening Consortium (MicroSource Discovery Systems). A single FD lymphoblast cell line was cultured in 24 well format and treated with 10 μM compound dissolved in DMSO for 72 hours. RNA was extracted using Tri-Reagent™ (Molecular Research Center) and reverse transcription and IKBKAP PCR was performed as previously described^4.\nAn assay that provides stable and consistent measurement of the ratio of WT:MU FD IKBKAP mRNA splice products in lymphoblast cell lines was developed^4. This assay was employed as part of the Neurodegeneration Drug Screening Consortium′ to identify compounds that increase the relative production of WT mRNA. A single, standard FD lymphoblast cell line was assayed after 72 hours in the presence of 10 μM test drug, using compounds dissolved in DMSO."}, "[2]": {"test_system": "rat liver and kidney tissue", "conditions": "in vivo, po; cited from earlier work"}, "MYO5A exon 31 splicing": {"test_system": "MYO5A exon 31 splicing", "conditions": "reference 13; cited from earlier work"}, "SMN2 exon 7": {"test_system": "SMN2 exon 7", "conditions": "cited from earlier work"}, "[3]": {"test_system": "IKBKAP WT:MU transcript ratio", "assay": "IKBKAP nonsense mediated decay analysis (cycloheximide) in FD lymphoblast cell lines", "type": "cell-based, human", "conditions": "50 μg/ml cycloheximide, four hours, FD cells", "protocol": "RT-PCR amplification and fractionation of the amplified product on a 1.5% agarose gel was performed on cell extracts. WT:MU IKBKAP transcript ratios were determined using the integrated density value (IDV) obtained for each band and are shown beneath each lane. Primer sequences and PCR conditions have been previously described^4\nCell Culture and Treatment.\nThe IVS20^+6T→C mutation in IKBKAP leads to a frameshift and a premature termination codon in exon 21, which is expected to target the mutant transcript for decay via the nonsense-mediated mRNA decay (NMD) pathway^15. […] FD cells were exposed to cycloheximide, a translation inhibitor, to inhibit NMD of the mutant transcript^16."}, "[4]": {"test_system": "IKBKAP mRNA (WT, MU, total)", "assay": "Real-time quantitative PCR of IKBKAP transcripts in FD lymphoblast cells", "type": "cell-based, human", "conditions": "doses higher than 50 μM (data not shown)"}, "IKAP protein": {"test_system": "IKAP protein", "assay": "Western blot of IKAP protein in FD lymphoblast cell lines", "type": "cell-based, human", "conditions": "increasing concentrations of kinetin, 72 hours, FD lymphoblast cells", "text": "Western Blot Analysis. […] Extracted protein was run on a 6% polyacrylamide gel. The samples were transferred to nitrocellulose and stained with Ponceau-S to visualize protein loading. IKAP was detected using a monoclonal antibody raised against amino acids 796-1008 of IKAP (BD Bioscience) that detects the 150 kD full-length IKAP protein. The same blot was probed with an antibody to insulin-degrading enzyme (IDE) as a protein loading control. Bands were quantitated using an Alpha 2000™ Image Analyzer."}, "FD lymphoblast cells": {"test_system": "FD lymphoblast cells", "assay": "Cellular toxicity in FD lymphoblast cells", "type": "cell-based, human", "conditions": "400 μM", "protocol": "By contrast, total IKBKAP mRNA was relatively unaffected, with a slight increase (˜1.5 fold) being detected only at doses higher than 50 μM (data not shown)."}, "[5]": {"test_system": "FD (MU) IKBKAP minigene exon 20", "assay": "IKBKAP minigene splicing assay, FD (MU) construct in HEK293 cells", "type": "cell-based, human", "conditions": "RT-PCR with T7 and BGH-R", "protocol": "(§1) In Vivo IKBKAP Minigene Splicing Assay. IKBKAP genomic DNA was amplified from an unaffected and an FD individual using primers in exon 19 and 21: EX19F-5′-[…] (SEQ ID NO:6) and EX21R-5′-[…] (SEQ ID NO:7). The amplified products were cloned into pcDNA3.1/V5-His Topo (Invitrogen) and sequenced for verification. […] Minigene constructs were transiently transfected 12 hours later using Genejuice (Novagen) as directed by the manufacturer. After 48 hours RNA was isolated using the RNAeasy kit (Qiagen) and reverse transcribed using Superscript™ II reverse transcriptase (Invitrogen) as described^4. PCR was performed using vector specific primers: T7 ([…]) (SEQ ID NO:8) and BGHR ([…]) (SEQ ID NO:9), which amplify both WT and MU transcripts, or the MU specific primer EX19/21F ([…]) (SEQ ID NO:10) and BGH-R to specifically amplify only MU transcripts. PCR was performed as follows: 26 cycles of [94° C., 30 s; 56° C., 30 s; 72° C., 30 s] and products resolved on a 1.5% agarose gel and visualized by ethidium bromide staining.\n(§2) These constructs were transfected into HEK293 cells and RNA was amplified using vector-specific primers to avoid amplification of the endogenous IKBKAP message. […] Introduction of the FD mutation into the construct increased exon 20 skipping as predicted."}, "[6]": {"test_system": "WT IKBKAP minigene exon 20", "assay": "IKBKAP minigene splicing assay, WT construct in HEK293 cells", "type": "cell-based, human", "conditions": "for inclusion of exon 20, WT minigene construct: RT-PCR with T7 and BGH-R", "protocol": "as §1, §2"}, "[7]": {"test_system": "NF1 minigene (exons 35 to 37, C>T at 6724)", "assay": "NF1 minigene splicing assay in HEK293 cells", "type": "cell-based, human", "conditions": "HEK293 cells transfected with NF1 minigene, with vs without kinetin", "protocol": "NF1 genomic DNA was amplified from an unaffected and an NF1 individual using primers at the 5′ end of exon 35 and the 3′ end of exon 37. […] The amplified products were cloned into pcDNA3.1/V5-His Topo (Invitrogen) and sequenced for verification. […] Minigene constructs were transiently transfected 12 hours later using Genejuice (Novagen) as directed by the manufacturer. After 48 hours RNA was isolated using the RNAeasy kit (Qiagen) and reverse transcribed using Superscript™ II reverse transcriptase (Invitrogen) as described^4. PCR was performed using vector specific primers: T7 ([…]) (SEQ ID NO:8) and BGHR ([…]) (SEQ ID NO:9), which amplify both WT and MU transcripts. PCR was performed as follows: 30 cycles of [94° C., 30 s; 58° C., 30 s; 72° C., 30 s] and products resolved on a 1.5% agarose gel and visualized by ethidium bromide staining."}, "human skin fibroblasts": {"test_system": "human skin fibroblasts", "conditions": "cultured human skin fibroblasts; cited from earlier work"}}, "note": "“Also recorded” adds a separate entry of the source. Read-outs that look alike come from different tables or passages of the source.", "data": [{"smiles": "CC(C)=CCNc1ncnc2nc[nH]c12", "note": "[2iP, 6-(γ,γ-dimethyallylamino)purine, reference compound]", "values": [{"measurement": "effect on WT:MU IKBKAP ratio", "setting": "[1]; FD lymphoblast assay, tested at 1, 10, 50 and 100 μM", "value": "neither zeatin nor 2iP (dissolved in DMSO at 10 mM) had any effect"}]}, {"smiles": "O=C(O)Cc1c[nH]c2ccccc12", "note": "[IAA, indoleacetic acid, reference compound]", "values": [{"measurement": "lipid peroxidation in liver and kidney tissue", "setting": "[2]", "value": "resulting in lipid peroxidation synthesis"}]}, {"smiles": "CC[C@@]1(O)C[C@H](O[C@H]2C[C@H](N(C)C)[C@H](O[C@H]3C[C@H](O)[C@H](O[C@H]4CCC(=O)[C@H](C)O4)[C@H](C)O3)[C@H](C)O2)c2c(cc3c(c2O)C(=O)c2c(O)cccc2C3=O)[C@H]1C(=O)OC", "note": "[aclarubicin, reference compound]", "values": [{"measurement": "correct IKBKAP splicing / production of wild-type IKBKAP transcript in FD cells", "setting": "[1]", "value": "no effect on IKBKAP splicing"}, {"measurement": "inclusion of alternatively spliced exons in MYO5A (literature)", "setting": "MYO5A exon 31 splicing", "value": "neither of these drugs promotes inclusion"}, {"measurement": "effect on exon 7 of SMN2", "setting": "SMN2 exon 7", "value": "can promote the inclusion of exon 7"}]}, {"smiles": "c1ccc(CNc2ncnc3nc[nH]c23)cc1", "note": "[benzyladenine, 6-benzylaminopurine]", "values": [{"measurement": "enhancement of inclusion of exon 20 in IKBKAP transcripts", "setting": "[1]; by 100 μM, FD lymphoblast assay", "value": "approximately 2 fold"}]}, {"smiles": "C[C@@H]1C[C@@H]([C@H](O)CC2CC(=O)NC(=O)C2)C(=O)[C@@H](C)C1", "note": "[cycloheximide]", "values": [{"measurement": "WT:MU IKBKAP transcript ratio, cycloheximide alone", "setting": "[3]", "value": "decreasing the WT:MU transcript ratio"}]}, {"smiles": "c1coc(CNc2ncnc3nc[nH]c23)c1", "note": "[kinetin, 6-furfurylaminopurine]", "values": [{"measurement": "correct IKBKAP splicing / production of wild-type IKBKAP transcript in FD cells", "setting": "[1]", "value": "dramatically enhanced correct splicing"}, {"measurement": "correct IKBKAP splicing / production of wild-type IKBKAP transcript in FD cells", "setting": "[1]; listed as Kinetin", "value": "significantly increases production of wild-type IKBKAP transcript"}, {"measurement": "MU IKBKAP band by densitometry", "setting": "[1]; 100 μM kinetin, RT-PCR gel", "value": "barely discernable"}, {"measurement": "increase in total IKBKAP mRNA", "setting": "[4]", "value": "~1.5", "unit": "fold"}, {"measurement": "IKAP protein production", "setting": "IKAP protein", "value": "increase in production of IKAP protein"}, {"measurement": "cellular toxicity", "setting": "FD lymphoblast cells", "value": "some cellular toxicity"}, {"measurement": "inclusion of exon 20, FD (MU) minigene construct", "setting": "[5]", "value": "enhanced inclusion of exon 20"}, {"measurement": "inclusion of exon 20, FD (MU) minigene construct", "setting": "[5]; listed as Kinetin", "value": "enhances inclusion of exon 20"}, {"measurement": "exon 20 skipping in WT construct transcripts (MU-specific PCR)", "setting": "[6]; MU-specific primer EX19/21F", "value": "completely corrected; also recorded: absence of MU transcript in the WT lane"}, {"measurement": "inclusion of exon 20, WT minigene construct", "setting": "[6]", "value": "enhanced inclusion of exon 20"}, {"measurement": "inclusion of exon 20, WT minigene construct", "setting": "[6]; listed as Kinetin", "value": "enhances inclusion of exon 20"}, {"measurement": "splicing of NF1 minigene", "setting": "[7]", "value": "altered splicing"}, {"measurement": "effect on exon 7 of SMN2", "setting": "SMN2 exon 7", "value": "no effect on skipping of exon 7"}, {"measurement": "cellular changes associated with in vitro aging of human skin cells", "setting": "human skin fibroblasts", "value": "delay or prevent a range of cellular changes"}, {"measurement": "maximum in vitro life span of human skin cells", "setting": "human skin fibroblasts", "value": "did not alter"}, {"measurement": "toxicity when administered orally to rats", "setting": "[2]", "value": "much less toxicity as compared to indoleacetic acid"}]}, {"smiles": "CC(=CCNc1ncnc2nc[nH]c12)CO", "note": "[zeatin, 6-(4-hydroxy-3-methylbut-2-enylamino)purine, reference compound]", "values": [{"measurement": "effect on WT:MU IKBKAP ratio", "setting": "[1]", "value": "neither zeatin nor 2iP (dissolved in DMSO at 10 mM) had any effect"}]}]}
